This assay concerns the target T1, hM5 (Homo sapiens, UniProt P08912).
T1 construct: expressed in transfected cells
T1 sequence (P08912 1-532): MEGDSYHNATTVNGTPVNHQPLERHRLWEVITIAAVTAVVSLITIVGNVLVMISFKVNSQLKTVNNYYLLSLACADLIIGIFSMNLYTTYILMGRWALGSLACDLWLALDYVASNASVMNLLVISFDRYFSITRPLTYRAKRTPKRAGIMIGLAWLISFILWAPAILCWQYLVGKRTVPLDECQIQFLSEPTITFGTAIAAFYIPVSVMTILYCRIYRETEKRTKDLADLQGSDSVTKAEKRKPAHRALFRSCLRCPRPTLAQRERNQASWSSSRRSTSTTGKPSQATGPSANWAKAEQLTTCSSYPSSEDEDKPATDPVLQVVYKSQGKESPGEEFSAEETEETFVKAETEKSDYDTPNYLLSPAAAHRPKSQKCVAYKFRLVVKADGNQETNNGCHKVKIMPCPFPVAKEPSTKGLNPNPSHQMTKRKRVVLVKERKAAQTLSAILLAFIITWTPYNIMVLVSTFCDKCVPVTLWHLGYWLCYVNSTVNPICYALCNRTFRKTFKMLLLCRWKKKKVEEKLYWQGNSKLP
Kind of assay: Calcium mobilization concentration-response (IC50 vs EC80 acetylcholine), CHO hM5. Format: cell-based. Conditions: CELL LINE hM5; calcium mobilization, EC80 acetylcholine addition; read-out: IC50. In outline:
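IC50 values derive from percent maximal acetylcholine response after an EC80 ACh addition, measured as kinetic calcium fluorescence (static ratio, max−min). Test compounds were added 140 s before agonist. Cells: stable hM5-CHO in HEPES-buffered HBSS with 2.5 mM probenecid, pH 7.4; ≥3 independent triplicate determinations.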

Bounds are passed on as bounds.

Turning to `Cc1cc(C#N)ncc1C1=CCN(S(=O)(=O)c2cnn(C)c2C)CC1` [Compound 239, 1′-((1,5-dimethyl-1H-pyrazol-4-yl)sulfonyl)-4-methyl-1′,2′,3′,6′-tetrahydro-[3,4′-bipyridine]-6-carbonitrile], the IC50 was over 10 µM.

Take `Cc1cc(C#N)ncc1C1=CCN(S(=O)(=O)c2ccc3c(c2)CCO3)CC1` [Compound 240, 1′-((2,3-dihydrobenzofuran-5-yl)sulfonyl)-4-methyl-1′,2′,3′,6-tetrahydro-[3,4′-bipyridine]-6-carbonitrile]: the IC50 was over 10 µM.

Regarding `O=S(=O)(c1cnn2c1CCCC2)N1CC=C(c2cc3ncnn3cc2Cl)CC1` [Compound 241, 6-chloro-7-(1-((4,5,6,7-tetrahydropyrazolo[1,5-a]pyridin-3-yl)sulfonyl)-1,2,3,6-tetrahydropyridin-4-yl)-[1,2,4]triazolo[1,5-a]pyridine], the IC50 was determined as 0.212 µM.

Regarding `O=S(=O)(c1cnn2c1CCCC2)N1CC=C(c2cn3ncnc3cc2Cl)CC1` [Compound 242, 7-chloro-6-(1-((4,5,6,7-tetrahydropyrazolo[1,5-a]pyridin-3-yl)sulfonyl)-1,2,3,6-tetrahydropyridin-4-yl)-[1,2,4]triazolo[1,5-a]pyridine], the IC50 came out at 0.005 µM.

As to `Cc1c(S(=O)(=O)N2CC=C(c3cnc4ncnn4c3C)CC2)cnn1C` [Compound 243, 6-(1-((1,5-dimethyl-1H-pyrazol-4-yl)sulfonyl)-1,2,3,6-tetrahydropyridin-4-yl)-7-methyl-[1,2,4]triazolo[1,5-a]pyrimidine], the IC50 is over 10 µM.

Regarding `Cc1c(C2=CCN(S(=O)(=O)c3ccc4c(c3)CCO4)CC2)cnc2ncnn12` [Compound 244, 6-(1-((2,3-dihydrobenzofuran-5-yl)sulfonyl)-1,2,3,6-tetrahydropyridin-4-yl)-7-methyl-[1,2,4]triazolo[1,5-a]pyrimidine], the IC50 was over 10 µM.

As for `Cc1ncc(S(=O)(=O)N2CCC(F)(c3cn4ncnc4cc3C)CC2)s1` [Compound 245, 5-((4-fluoro-4-(7-methyl-[1,2,4]triazolo[1,5-a]pyridin-6-yl)piperidin-1-yl)sulfonyl)-2-methylthiazole], the IC50 was over 10 µM.

Consider `Cc1cc2nccn2nc1C1CCN(S(=O)(=O)c2cnn3c2CCC3)CC1` [Compound 246, 6-(1-((5,6-dihydro-4H-pyrrolo[1,2-b]pyrazol-3-yl)sulfonyl)piperidin-4-yl)-7-methylimidazo[1,2-b]pyridazine], for which the IC50 came out at 0.017 µM.

`Cc1cc2nccn2nc1C1CCN(S(=O)(=O)c2cnn3c2CCCC3)CC1` [Compound 247, 7-methyl-6-(1-((4,5,6,7-tetrahydropyrazolo[1,5-a]pyridin-3-yl)sulfonyl)piperidin-4-yl)imidazo[1,2-b]pyridazine]: the 50% inhibitory concentration (IC50) came out at 0.019 µM.

In the case of `Cc1cc2nccn2nc1C1CCN(S(=O)(=O)c2c(C)nn(C)c2Cl)CC1` [Compound 248, 6-(1-((5-chloro-1,3-dimethyl-1-pyrazol-4-yl)sulfonyl)piperidin-4-yl)-7-methylimidazo[1,2-b]pyridazine], the IC50 is 0.069 µM.

Take `Cc1nc(C)c(S(=O)(=O)N2CCC(c3nn4ccnc4cc3C)CC2)s1` [Compound 249, 2,4-dimethyl-5-((4-(7-methylimidazo[1,2-b]pyridazin-6-yl)piperidin-1-yl)sulfonyl)thiazole]: the IC50 came out at 2.6 µM.

Take `Cc1cc2nccn2nc1C1CCN(S(=O)(=O)c2ccc3c(c2)N(C)CCO3)CC1` [Compound 250, 4-methyl-6-((4-(7-methylimidazo[1,2-b]pyridazin-6-yl)piperidin-1-yl)sulfonyl)-3,4-dihydro-2H-benzo[b][1,4]oxazine]: the IC50 was 1.5 µM.

With `Cc1cc2nccn2nc1C1CCN(S(=O)(=O)c2cnn(C)c2C)CC1` [Compound 251, 6-(1-((1,5-dimethyl-1H-pyrazol-4-yl)sulfonyl)piperidin-4-yl)-7-methylimidazo[1,2-b]pyridazine], the IC50 turned out to be 0.034 µM.

As for `Cc1cc2nccn2nc1C1CCN(S(=O)(=O)c2cnc(C)n2C)CC1` [Compound 252, 6-(1-((1,2-dimethyl-1H-imidazol-5-yl)sulfonyl)piperidin-4-yl)-7-methylimidazo[1,2-b]pyridazine], the IC50 stood at 0.123 µM.

With `O=S(=O)(c1cnn2c1NCCC2)N1CCC(c2cn3ncnc3cc2F)CC1` [Compound 253, 7-fluoro-6-(1-((4,5,6,7-tetrahydropyrazolo[1,5-a]pyrimidin-3-yl)sulfonyl)piperidin-4-yl)-[1,2,4]triazolo[1,5-a]pyridine], the IC50 came to 0.057 µM.

Regarding `[2H]C([2H])([2H])n1cc(S(=O)(=O)N2CCC(c3cn4ncnc4cc3C)CC2)c(Cl)n1` [Compound 256, 6-(1-((3-chloro-1-(methyl-d3)-1H-pyrazol-4-yl)sulfonyl)piperidin-4-yl)-7-methyl-[1,2,4]triazolo[1,5-a]pyridine], the half-inhibitory concentration (IC50) is 0.053 µM.

As to `[2H]C([2H])([2H])n1nc(Cl)c(S(=O)(=O)N2CCC(c3cn4ncnc4cc3F)CC2)c1C` [Compound 257, 6-(1-((3-chloro-5-methyl-1-(methyl-d3)-1H-pyrazol-4-yl)sulfonyl)piperidin-4-yl)-7-fluoro-[1,2,4]triazolo[1,5-a]pyridine], the IC50 was determined as 0.089 µM.

As for `[2H]C([2H])([2H])n1cc(S(=O)(=O)N2CCC(c3cn4ncnc4cc3F)CC2)c(Cl)n1` [Compound 259, 6-(1-((3-chloro-1-(methyl-d3)-1H-pyrazol-4-yl)sulfonyl)piperidin-4-yl)-7-fluoro-[1,2,4]triazolo[1,5-a]pyridine], the IC50 was found to be 3 µM.

For `[2H]C([2H])([2H])n1nc(Cl)c(S(=O)(=O)N2CCC(c3cn4ncnc4cc3C)CC2)c1C` [Compound 260, 6-(1(3-chloro-5-methyl-1-(methyl-d3-1H-pyrazol-4-yl)sulfonyl)piperidin-4-yl)-7-methyl-[1,2,4]triazolo[1,5-a]pyridine], the concentration for half-maximal inhibition (IC50) was 0.029 µM.

On to `Cc1cc2ncnn2cc1C1CCN(S(=O)(=O)c2cnn3c2NCCC3)CC1` [Compound 261, 7-methyl-6-(1-((4,5,6,7-tetrahydropyrazolo[1,5-a]pyrimidin-3-yl)sulfonyl)piperidin-4-yl)-[1,2,4]triazolo[1,5-a]pyridine], for which the IC50 came to 0.062 µM.

In the case of `COc1cc2ncnn2cc1C1CCN(S(=O)(=O)c2cnn3c2CCC3)CC1` [Compound 263, 6-(1-((5,6-dihydro-4H-pyrrolo[1,2-b]pyrazol-3-yl)sulfonyl)piperidin-4-yl)-7-methoxy-[1,2,4]triazolo[1,5-a]pyridine], the IC50 is 1.4 µM.

Turning to `Cc1c(C2CCN(S(=O)(=O)c3cnn(C)c3C)CC2)cn2ncnc2c1F` [Compound 264, 6-(1-((1,5-dimethyl-1H-pyrazol-4-yl)sulfonyl)piperidin-4-yl)-8-fluoro-7-methyl-[1,2,4]triazolo[1,5-a]pyridine], the IC50 worked out at 0.021 µM.

Regarding `Cc1nn(C)c(C(F)(F)F)c1S(=O)(=O)N1CCC(c2cn3ncnc3c(F)c2C)CC1` [Compound 266, 6-(1-((1,3-dimethyl-5-(trifluoromethyl)-1H-pyrazol-4-yl)sulfonyl)piperidin-4-yl)-8-fluoro-7-methyl-[1,2,4]triazolo[1,5-a]pyridine], the IC50 is 0.284 µM.

Take `Cc1c(C2CCN(S(=O)(=O)c3ccc4c(c3)CCO4)CC2)cn2ncnc2c1F` [Compound 267, 6-(1-((2,3-dihydrobenzofuran-5-yl)sulfonyl)piperidin-4-yl)-8-fluoro-7-methyl-[1,2,4]triazolo[1,5-a]pyridine]: the IC50 amounted to 0.208 µM.

`Cc1c(C2CCN(S(=O)(=O)c3cnn4c3CCC4)CC2)cn2ncnc2c1F` [Compound 268, 6-(1-((5,6-dihydro-4H-pyrrolo[1,2-b]pyrazol-3-yl)sulfonyl)piperidin-4-yl)-8-fluoro-7-methyl-[1,2,4]triazolo[1,5-a]pyridine]: the IC50 was 0.014 µM.

On to `Cc1c(C2CCN(S(=O)(=O)c3cnn(C(F)F)c3C)CC2)cn2ncnc2c1F` [Compound 269, 6-(1-((1-(difluoromethyl)-5-methyl-1H-pyrazol-4-yl)sulfonyl)piperidin-4-yl)-8-fluoro-7-methyl-[1,2,4]triazolo[1,5-a]pyridine], for which the IC50 stood at 0.326 µM.

For the compound `O=S(=O)(c1cnn2c1CCCC2)N1CCC(c2cn3ncnc3cc2C(F)(F)F)CC1` [Compound 271, 6-(1-((4,5,6,7-tetrahydropyrazolo[1,5-a]pyridin-3-yl)sulfonyl)piperidin-4-yl)-7-(trifluoromethyl)-[1,2,4]triazolo[1,5-a]pyridine], the IC50 amounted to 0.051 µM.

`O=S(=O)(c1cnn2c1CCC2)N1CCC(c2cn3ncnc3cc2C(F)(F)F)CC1` [Compound 272, 6-(1-((5,6-dihydro-4H-pyrrolo[1,2-b]pyrazol-3-yl)sulfonyl)piperidin-4-yl)-7-(trifluoromethyl)-[1,2,4]triazolo[1,5-a]pyridine]: the IC50 is 0.074 µM.

Turning to `Cc1c(S(=O)(=O)N2CCC(c3cn4ncnc4cc3C(F)(F)F)CC2)cnn1C` [Compound 273, 6-(1-((1,5-dimethyl-1H-pyrazol-4-yl)sulfonyl)piperidin-4-yl)-7-(trifluoromethyl)-[1,2,4]triazolo[1,5-a]pyridine], the IC50 was 0.15 µM.

(Values after US20230183237A1, “COMPETITIVE AND NONCOMPETITIVE INHIBITORS OF THE MUSCARINIC ACETYLCHOLINE RECEPTOR M5” (Vanderbilt University, priority 2020, published 2023).)
